Source: patent publication US20230146455A1, “TREATMENT OF INFLAMMATORY DISEASES WITH PEPTIDES AND PHARMACEUTICAL COMPOSITIONS” (Yuyu Pharma, Inc., priority 2020, published 2023)
Several values for one entry are separate records, joined by “and”; a condition that tells them apart may be missing. Identical values can stand only once. Where a SMILES comes first, the peptide text is derived from it. [ ]: non-standard residue; d: D form. Hyp = O=C(O)[C@@H]1C[C@@H](O)CN1

Columns and labels:
CCL3/MIP-1 alpha = assay: Example 9 Luminex, LPS hPBMCs: CCL3/MIP-1 alpha; type: cell-based, human
Protocol: (§1) Treatment Human PBMCs were pretreated with YY-101, YDE-011 and YDE-043 or reference compound; Xiidra® at various concentration (ranging from 1 nM to 100 uM) for 2 h before stimulation. An equal volume of 0.5% DMSO was used as a vehicle control. Then, the cells were treated with LPS at 5 ug/ml. The supernatants from treated cells were harvested at 24 h and placed in a 96 well for Luminex cytokine & chemokine profiling using a Luminex 200 multiplex assay (Luminex; R&D system, USA).
(§2) The main study arm with triplicate wells per group in a 24-well plate: • 1. Blank • 2. PBMC: 0.5% DMSO • 3. PBMC+LPS (5 ug/ml) • 4. PBMC+YY-101 100 uM • 5. PBMC+YY-101 10 uM • 6. PBMC+YY-101 1 uM • 7. PBMC+YY-101 0.1 uM • 8. PBMC+YY-101 0.01 uM • 9. PBMC+LPS (5 ug/ml)+Xiidra®100 uM • 10. PBMC+LPS (5 ug/ml)+Xiidra® 10 uM • 11. PBMC+LPS (5 ug/ml)+Xiidra® 1 uM • 12. PBMC+LPS (5 ug/ml)+Xiidra®0.1 uM • 13. PBMC+LPS (5 ug/ml)+Xiidra®0.01 uM • 14. PBMC+LPS (5 ug/ml)+Xiidra®0.001 uM • 15. PBMC+LPS (5 ug/ml)+YY-101 100 uM • 16. PBMC+LPS (5 ug/ml)+YY-101 10 uM • 17. PBMC+LPS (5 ug/ml)+YY-101 1 uM • 18. PBMC+LPS (5 ug/ml)+YY-101 0.1 uM • 19. PBMC+LPS (5 ug/ml)+YY-101 0.01 uM • 20. PBMC+LPS (5 ug/ml)+YY-101 0.001 uM • 21. PBMC+LPS (5 ug/ml)+YDE-011 100 uM • 22. PBMC+LPS (5 ug/ml)+YDE-011 10 uM • 23. PBMC+LPS (5 ug/ml)+YDE-011 1 uM • 24. PBMC+LPS (5 ug/ml)+YDE-011 0.1 uM • 25. PBMC+LPS (5 ug/ml)+YDE-011 0.01 uM • 26. PBMC+LPS (5 ug/ml)+YDE-011 0.001 uM • 27. PBMC+LPS (5 ug/ml)+YDE-043 100 uM • 28. PBMC+LPS (5 ug/ml)+YDE-043 10 uM • 29. PBMC+LPS (5 ug/ml)+YDE-043 1 uM • 30. PBMC+LPS (5 ug/ml)+YDE-043 0.1 uM • 31. PBMC+LPS (5 ug/ml)+YDE-043 0.01 uM • 32. PBMC+LPS (5 ug/ml)+YDE-043 0.001 uM
(§3) Multiplex assay was used to measure 30 cytokines and chemokines. The 1:2, 1:10 and 1:200 diluted cell supernatant and serial dilution of the standard were dispensed into a 96 well plate at 50 ul/well. Then, the pre-mixed cocktail of antibody-coated magnetic beads was dispensed at 50 ul/well and incubated at room temperature for 2 h in a horizontal orbital microplate shaker at 800±500 rpm. The beads were washed using a magnetic device to prevent loss. The biotin-antibody was dispensed in 50 ul of each well and incubated at room temperature for 1 h in a shaker at 800±500 rpm. After washing, streptavidin-PE was added at 50 ul/well and incubated at room temperature for 30 min in a shaker under the same conditions. Finally, after washing, wash buffer (100 ul/well) was added to the plate and incubated in a shaker for 2 min. The Luminex™ 200 setting were set according to the manufacturer's protocol. The data was calculated with a standard five-parameter logistic nonlinear regression analysis of the data (xPonent software 4.2, USA). The levels of cytokine/chemokine are normalized to the live cell counts (1×10^5 cells/mL) and presented as concentrations per mL (pg/mL or ng/mL).

VEGF-A = assay: Example 9 Luminex, LPS hPBMCs: VEGF-A; type: cell-based, human; conditions: for conc/live cell / Concentration: Bead VEGF-A; for Concentration: dilution 2.0
Protocol: as §1, §2, §3

[1] = PBMC + LPS(5 ug/ml) + test article 0.001 uM, Mean
[2] = PBMC + LPS(5 ug/ml) + test article 0.001 uM, individual replicates
[3] = PBMC + LPS(5 ug/ml) + test article 0.01 uM, Mean
[4] = PBMC + LPS(5 ug/ml) + test article 0.01 uM, individual replicates
[5] = PBMC + LPS(5 ug/ml) + test article 0.1 uM, Mean
[6] = PBMC + LPS(5 ug/ml) + test article 0.1 uM, individual replicates
[7] = PBMC + LPS(5 ug/ml) + test article 1 uM, Mean
[8] = PBMC + LPS(5 ug/ml) + test article 1 uM, individual replicates
[9] = PBMC + LPS(5 ug/ml) + test article 10 uM, Mean
[10] = PBMC + LPS(5 ug/ml) + test article 10 uM, individual replicates
[11] = PBMC + LPS(5 ug/ml) + test article 100 uM, Mean
[12] = PBMC + LPS(5 ug/ml) + test article 100 uM, individual replicates
[13] = PBMC + LPS(5 ug/ml) + test article 1 uM, single replicates
[14] = PBMC + LPS(5 ug/ml) + test article 10 uM, single replicates
[15] = PBMC + LPS(5 ug/ml) + test article 0.001 uM, single replicates
[16] = PBMC + LPS(5 ug/ml) + test article 0.01 uM, single replicates
[17] = PBMC + LPS(5 ug/ml) + test article 0.1 uM, single replicates

## CC(C)C[C@H](NC(=O)CNC(=O)[C@H](CC(C)C)NC(=O)[C@H](CCC(N)=O)NC(=O)CNC(=O)[C@@H]1C[C@@H](O)CN1)C(=O)N[C@@H](C)C(=O)NCC(=O)N1CCC[C@H]1C(=O)N[C@@H](CCCCN)C(=O)O [YDE-011] (H-[Hyp]GQLGLAGPK-OH)
CCL3/MIP-1 alpha; [1]
  Concentration: 7478.7 pg/mL
  conc/live cell: 1414.4 pg/10^5
CCL3/MIP-1 alpha; [2]
  Concentration: 7525.9 pg/mL and 7321.9 pg/mL and 7588.4 pg/mL
  conc/live cell: 1672.4 pg/10^5 and 1262.4 pg/10^5 and 1308.3 pg/10^5
CCL3/MIP-1 alpha; [3]
  Concentration: 7584.1 pg/mL
  conc/live cell: 1304.0 pg/10^5
CCL3/MIP-1 alpha; [4]
  Concentration: 7600.8 pg/mL and 7525.9 pg/mL and 7625.5 pg/mL
  conc/live cell: 1225.9 pg/10^5 and 1475.7 pg/10^5 and 1210.4 pg/10^5
CCL3/MIP-1 alpha; [5]
  Concentration: 7103.9 pg/mL
  conc/live cell: 1250.7 pg/10^5
CCL3/MIP-1 alpha; [6]
  Concentration: 6974.8 pg/mL and 7334.8 pg/mL and 7002.2 pg/mL
  conc/live cell: 1056.8 pg/10^5 and 1467.0 pg/10^5 and 1228.5 pg/10^5
CCL3/MIP-1 alpha; [7]
  Concentration: 7537.7 pg/mL
  conc/live cell: 1505.0 pg/10^5
CCL3/MIP-1 alpha; [8]
  Concentration: 7399.2 pg/mL and 7613.2 pg/mL and 7600.8 pg/mL
  conc/live cell: 1345.3 pg/10^5 and 1586.1 pg/10^5 and 1583.5 pg/10^5
CCL3/MIP-1 alpha; [9]
  Concentration: 7734.7 pg/mL
  conc/live cell: 1473.3 pg/10^5
CCL3/MIP-1 alpha; [10]
  Concentration: 7962.5 pg/mL and 7373.5 pg/mL and 7868.0 pg/mL
  conc/live cell: 1474.5 pg/10^5 and 1271.3 pg/10^5 and 1674.0 pg/10^5
CCL3/MIP-1 alpha; [11]
  Concentration: 7968.8 pg/mL
  conc/live cell: 1313.3 pg/10^5
CCL3/MIP-1 alpha; [12]
  Concentration: 8238.4 pg/mL and 8067.3 pg/mL and 7600.8 pg/mL
  conc/live cell: 1350.6 pg/10^5 and 1322.5 pg/10^5 and 1266.8 pg/10^5
VEGF-A; [7]
  conc/live cell: 0.3 pg/10^5
  Concentration: 2.8 pg/mL
VEGF-A; [13]
  Concentration: 0.6 pg/mL
  conc/live cell: 0.0 pg/10^5 and 0.1 pg/10^5
  Concentration, Bead name: VEGF-A: 4.9 pg/mL
  MFI, Bead name: VEGF-A: −0.3
  conc/live cell, Bead name: VEGF-A: 0.9 pg/10^5
VEGF-A; [9]
  conc/live cell: 0.3 pg/10^5
  Concentration: 2.1 pg/mL
VEGF-A; [14]
  Concentration: 3.6 pg/mL and 0.6 pg/mL
  conc/live cell: 0.7 pg/10^5 and 0.0 pg/10^5 and 0.1 pg/10^5
VEGF-A; [11]
  conc/live cell: 0.0 pg/10^5
VEGF-A; PBMC + LPS(5 ug/ml) + test article 100 uM, single replicates
  conc/live cell: 0.0 pg/10^5
VEGF-A; [1]
  Concentration, Bead name: VEGF-A: 4.3 pg/mL
  MFI, Bead name: VEGF-A: −0.4
  conc/live cell, Bead name: VEGF-A: 0.8 pg/10^5
VEGF-A; [15]
  Concentration, Bead name: VEGF-A: 6.1 pg/ml (2×) and 0.6 pg/ml
  MFI, Bead name: VEGF-A: 0.3 (2×) and −1.8
  conc/live cell, Bead name: VEGF-A: 1.4 pg/10^5 and 0.1 pg/10^5 and 1.1 pg/10^5
VEGF-A; [3]
  Concentration, Bead name: VEGF-A: 2.8 pg/mL
  MFI, Bead name: VEGF-A: −1.6
  conc/live cell, Bead name: VEGF-A: 0.3 pg/10^5
VEGF-A; [16]
  Concentration, Bead name: VEGF-A: 4.9 pg/mL and 0.6 pg/mL
  MFI, Bead name: VEGF-A: −0.3 and −2.8 and −1.8
  conc/live cell, Bead name: VEGF-A: 0.8 pg/10^5 and 0.0 pg/10^5 and 0.1 pg/10^5
VEGF-A; [5]
  Concentration, Bead name: VEGF-A: 0.6 pg/mL
  MFI, Bead name: VEGF-A: −2.1
  conc/live cell, Bead name: VEGF-A: 0.1 pg/10^5
VEGF-A; [17]
  Concentration, Bead name: VEGF-A: 0.6 pg/mL
  MFI, Bead name: VEGF-A: −1.8 (2×) and −2.8
  conc/live cell, Bead name: VEGF-A: 0.1 pg/10^5 (2×) and 0.0 pg/10^5
